Measured values: patent US9642829B2, “Antifungal compound and uses thereof” (The University of Hong Kong, priority 2012, dated 2017)
Blank lines part the entries; values can stand above or below the compound they belong to.

Key:
C. albicans biofilms = assay: Mono species Candida biofilm MIC, XTT assay; format: cell-based, Candida albicans; details: for Minimum inhibitory concentration of 48 h Candida biofilms: 48 h C. albicans biofilms; for Biofilm MIC90: 24 h C. albicans biofilms, 24 h drug exposure, XTT
Procedure: (§1) For instance, we have previously shown the resistance of Candida biofilms against amphotericin and caspofungin. Therefore, next using standard biofilm assays we have established in our laboratory, we examined the effect of SM21 against Candida biofilms. In brief, Candida cells were grown in SDA medium at 37° C. for 18 h. Then a loopful of the yeast was inoculated into the yeast nitrogen base (YNB; Difco) medium supplemented with 50 mM glucose in a rotary shaker at 75 rpm. After overnight broth culture, the yeasts were harvested in the late exponential growth phase and washed twice with 20 ml of phosphate buffer saline (PBS; pH 7.2. 0.1 M) prior to use in the biofilm studies. Candida biofilms were developed according to a previously published protocol. In brief, washed yeast cells were resuspended in YNB supplemented with 100 mM glucose and adjusted to an optical density of 0.38 at 520 nm (1×10^7 cells/ml). The standard cell suspension was used immediately to develop biofilms on commercially available presterilized, polystyrene, 96-well plate (IWAKI, Tokyo, Japan). At first, 100 μl of standardized cell suspension (1×10^7 cells/ml) was pipetted into each well of a microtiter plate and incubated for 1.5 h at 37° C. in a shaker at 75 rpm to permit yeast adherence to the well surface (adherence phase). For controls, a well of each microtiter plate was handled in an identical fashion except that no Candida suspension was added. Following the adhesion phase, the cell suspensions were aspirated, and each well washed with 100 μl of PBS to remove loosely adherent cells. 200 μl of YNB with 100 mM glucose were then pipetted into each of the washed wells and the plates incubated at 37° C. in a shaker at 75 rpm for 24 or 48 h. After biofilm growth phase microscopic examination of the cultures were performed to rule out contamination. Then, the suspending medium was aspirated and biofilms were washed with 100 μl PBS to remove the nonadherent cells. The stock solutions were diluted twofold with RPMI 1640 supplemented with 2% glucose to obtain SM21 concentration from 100 to 0.2 μg/ml drug concentrations. In parallel, other antifungal agents such as caspofungin (100 to 0.1 μg/ml) and amphotericin B (240 μg/ml to 0.225 μg/ml) was also prepared as describe above. A total of 100 μl of drug solution was added to the microtiter plate containing Candida biofilms. Biofilms were then incubated at 37° C. for 24 h with the antifungals and afterwards metabolic activity of fungal cells was determined by the XTT [2,3-bis(2-methoxy-4-nitro-5-sulfophenyl)-2H-tetrazolium-5-carboxanilide sodium salt] assay (17, 28). Candida biofilm MIC90 was defined as the lowest drug concentration with 90% reduction in opacity compared with the drug free control. Each experiment was repeated three times with four replicates.

C. glabrata biofilms = assay: Mono species Candida biofilm MIC, XTT assay; format: cell-based; details: 48 h C. glabrata biofilms
Procedure: as §1

C. krusei biofilms = assay: Mono species Candida biofilm MIC, XTT assay; format: cell-based; details: 48 h C. krusei biofilms
Procedure: as §1

C. albicans [1] = assay: Antifungal susceptibility (MIC/MFC), CLSI criteria, 96-well double dilution; format: cell-based, Candida albicans; details: 0.5 McFarland inoculum (10^6 cells/ml)
Procedure: (§2) Antifungal activity of the small molecules was evaluated using USA standards, Clinical and Laboratory Standards Institute (CLSI) criteria. In brief, inocula from 24 h Candida cultures on Sabourauds's dextore agar were standardized to a turbidity equivalent of 0.5 McFarland standards at 520 nm with a spectrophotometer. The suspensions were further diluted in Rosewell Park Memorial Institute (RPMI) 1640 medium (Life technologies, New York, USA) to yield an inoculum concentration of approximately 0.5 1×10^3 to 2.5 1×10^3 cells/ml. Minimum inhibitory concentration (MIC) and minimum fungicidal concentration (MFC) assay was performed in 96-well plates (Iwaki, Tokyo, Japan) and each of the Candida species was exposed to a double dilution of SM21. Amphotericin B was used as a positive control. All the experiments were preformed three occasions with duplicates for all isolates. The plates were incubated at 35° C. for 48 h to evaluate MIC. In the case of Cryotococcus neoformans, reading were taken after 72 h. Aforementioned assay was performed for C. albicans ATCC 90028, C. albicans SC5314 and 10 C. albicans clinical isolates. Moreover, MIC/MFC determination was carried out for other fungal species such as C. glabrata, C. krusei, C. tropicalis, C. parapsilosis, C. neoformans, Aspergillus fumigates and Penicillium marneffei. […] Next using dose-dependent assay we tested that MIC/MFC of SM21 from 10^3 cells/ml to 10^7 cells/ml of C. albicans (Table 2). Each of the foregoing experiment was repeated on three different occasions.

C. glabrata = assay: Antifungal susceptibility (MIC/MFC), CLSI criteria; format: cell-based, Candida glabrata; details: C. glabrata ATCC; 0.5 McFarland inoculum (10^6 cells/ml)
Procedure: (§3) Antifungal activity of the small molecules was evaluated using USA standards, Clinical and Laboratory Standards Institute (CLSI) criteria. In brief, inocula from 24 h Candida cultures on Sabourauds's dextore agar were standardized to a turbidity equivalent of 0.5 McFarland standards at 520 nm with a spectrophotometer. The suspensions were further diluted in Rosewell Park Memorial Institute (RPMI) 1640 medium (Life technologies, New York, USA) to yield an inoculum concentration of approximately 0.5 1×10^3 to 2.5 1×10^3 cells/ml. Minimum inhibitory concentration (MIC) and minimum fungicidal concentration (MFC) assay was performed in 96-well plates (Iwaki, Tokyo, Japan) and each of the Candida species was exposed to a double dilution of SM21. Amphotericin B was used as a positive control. All the experiments were preformed three occasions with duplicates for all isolates. The plates were incubated at 35° C. for 48 h to evaluate MIC. In the case of Cryotococcus neoformans, reading were taken after 72 h. Aforementioned assay was performed for C. albicans ATCC 90028, C. albicans SC5314 and 10 C. albicans clinical isolates. Moreover, MIC/MFC determination was carried out for other fungal species such as C. glabrata, C. krusei, C. tropicalis, C. parapsilosis, C. neoformans, Aspergillus fumigates and Penicillium marneffei. […]

C. krusei = assay: Antifungal susceptibility (MIC/MFC), CLSI criteria; format: cell-based, Candida krusei; details: C. krusei ATCC; 0.5 McFarland inoculum (10^6 cells/ml)
Procedure: as §3

C. tropicalis = assay: Antifungal susceptibility (MIC/MFC), CLSI criteria; format: cell-based, Candida tropicalis; details: C. tropicalis ATCC; 0.5 McFarland inoculum (10^6 cells/ml)
Procedure: as §3

C. parapsilosis = assay: Antifungal susceptibility (MIC/MFC), CLSI criteria; format: cell-based, Candida parapsilosis; details: C. parapsilosis ATCC; 0.5 McFarland inoculum (10^6 cells/ml)
Procedure: as §3

C. neoformans = assay: Antifungal susceptibility (MIC/MFC), CLSI criteria, reading after 72 h; format: cell-based, Cryptococcus neoformans; details: 0.5 McFarland inoculum (10^6 cells/ml)
Procedure: as §3

Aspergillus fumigatus = assay: Antifungal susceptibility (MIC/MFC), CLSI criteria; format: cell-based; details: 0.5 McFarland inoculum (10^6 cells/ml)
Procedure: as §2

Penicillium marneffei = assay: Antifungal susceptibility (MIC/MFC), CLSI criteria; format: cell-based; details: 0.5 McFarland inoculum (10^6 cells/ml)
Procedure: as §2

C. albicans [2] = assay: Dose-dependent assay of MIC/MFC at different cell densities; format: cell-based, Candida albicans; design: unit not given here
Procedure: as §2

[3] = system: C. albicans SC5314 and C. albicans ATCC 90028; assay: Antifungal activity compared with caspofungin and amphotericin B (FIG. 2, CLSI M44-A disc diffusion); format: cell-based, Candida albicans
Text: (§4) Oral Biosciences laboratory has one of the largest collections of fungal isolates, particular that of Candida species in the world. In our previous studies, we have found multidrug resistant clinical isolates of Candida species against existing antifungals. In particular, some of these strains are resistant to best antifungal agents to date such as caspofungin, amphotericin B and fluconazole. Therefore, we performed antifungal susceptibility testing for SM21 against these drug resistant Candida isolates suing CLSI M27A brothmicrodultion assay and CLSI M44-A disc diffusion assay.

resistant isolate T-1549 = assay: as above; format: cell-based, C. guilliermondii; details: resistant isolate T-1549 (FIG. 2C)
Text: as §4

[4] = C. albicans ATCC 90028, CLSI quality control strain (FIG. 2B)

SMILES: Nc1nc(=O)[nH]cc1F [5-fluorocytosine]
Minimum inhibitory concentration of 48 h Candida biofilms (C. albicans biofilms): 420 µg/mL
Minimum inhibitory concentration of 48 h Candida biofilms (C. glabrata biofilms): 420 µg/mL
Minimum inhibitory concentration of 48 h Candida biofilms (C. krusei biofilms): 250 µg/mL

Susceptibility (MIC90) (C. albicans [1]; C. albicans ATCC 90028): 0.2 µg/mL
Susceptibility (MIC90) (C. albicans [1]; C. albicans CL1): 0.2 µg/mL
Susceptibility (MIC90) (C. albicans [1]; C. albicans CL2): 0.4 µg/mL
Susceptibility (MIC90) (C. albicans [1]; C. albicans CL3): 0.4 µg/mL
Susceptibility (MIC90) (C. albicans [1]; C. albicans CL4): 0.2 µg/mL
Susceptibility (MIC90) (C. albicans [1]; C. albicans CL5): 0.2 µg/mL
Susceptibility (MIC90) (C. albicans [1]; C. albicans CL6): 0.2 µg/mL
Susceptibility (MIC90) (C. albicans [1]; C. albicans CL7): 0.2 µg/mL
Susceptibility (MIC90) (C. albicans [1]; C. albicans CL8): 0.4 µg/mL
Susceptibility (MIC90) (C. albicans [1]; C. albicans CL9): 0.4 µg/mL
Susceptibility (MIC90) (C. albicans [1]; C. albicans CL10): 0.2 µg/mL
Susceptibility (MIC90) (C. albicans [1]; C. albicans SC5314): 0.2 µg/mL
Susceptibility (MIC90) (C. glabrata): 0.4 µg/mL
Susceptibility (MIC90) (C. krusei): 0.4 µg/mL
Susceptibility (MIC90) (C. tropicalis): 0.8 µg/mL
Susceptibility (MIC90) (C. parapsilosis): 0.8 µg/mL
Susceptibility (MIC90) (C. neoformans): 0.4 µg/mL
Susceptibility (MIC90) (Aspergillus fumigatus): 1.56 µg/mL
Susceptibility (MIC90) (Penicillium marneffei): 0.05 µg/mL
MIC/MFC (C. albicans [2]; C. albicans 10^4 cells/ml): 0.2
MIC/MFC (C. albicans [2]; C. albicans 10^5 cells/ml): 0.2
MIC/MFC (C. albicans [2]; C. albicans 10^6 cells/ml): 0.2
MIC/MFC (C. albicans [2]; C. albicans 10^7 cells/ml): 0.8
Biofilm MIC90 (C. albicans biofilms): 32 µg/mL
SMILES: C[C@@H]1[C@H](O)[C@@H](C)/C=C/C=C/C=C/C=C/C=C/C=C/C=C/[C@H](O[C@@H]2O[C@H](C)[C@@H](O)[C@H](N)[C@@H]2O)C[C@@H]2O[C@](O)(C[C@@H](O)C[C@@H](O)[C@H](O)CC[C@@H](O)C[C@@H](O)CC(=O)O[C@H]1C)C[C@H](O)[C@H]2C(=O)O [Amphotericin B, reference compound]
Susceptibility of the strain to the agent [3, 4]: susceptible
Susceptibility of the strain to the agent ([3]; C. albicans SC5314 (FIG. 2A)): susceptible
Effectiveness against resistant isolate (resistant isolate T-1549): only SM21 was effective
Minimum inhibitory concentration of 48 h Candida biofilms (C. albicans biofilms): 32 µg/mL
Minimum inhibitory concentration of 48 h Candida biofilms (C. glabrata biofilms): 16 µg/mL
Minimum inhibitory concentration of 48 h Candida biofilms (C. krusei biofilms): 32 µg/mL

Biofilm MIC90 (C. albicans biofilms): 50 µg/mL
SMILES: CC[C@H](C)C[C@H](C)CCCCCCCCC(=O)N[C@H]1C[C@@H](O)[C@@H](NCCN)NC(=O)[C@@H]2[C@@H](O)CCN2C(=O)[C@H]([C@H](O)CCN)NC(=O)[C@H]([C@H](O)[C@@H](O)c2ccc(O)cc2)NC(=O)[C@@H]2C[C@@H](O)CN2C(=O)[C@H]([C@@H](C)O)NC1=O [Caspofungin]
Susceptibility of the strain to the agent [3, 4]: susceptible
Susceptibility of the strain to the agent ([3]; C. albicans SC5314 (FIG. 2A)): susceptible
Effectiveness against resistant isolate (resistant isolate T-1549): only SM21 was effective
Minimum inhibitory concentration of 48 h Candida biofilms (C. albicans biofilms): 100 µg/mL
Minimum inhibitory concentration of 48 h Candida biofilms (C. glabrata biofilms): 100 µg/mL
Minimum inhibitory concentration of 48 h Candida biofilms (C. krusei biofilms): 100 µg/mL

SMILES: CC(=O)N1CCN(c2ccc(OCC3COC(Cn4ccnc4)(c4ccc(Cl)cc4Cl)O3)cc2)CC1 (stereo not shown) [Ketoconazole]
Minimum inhibitory concentration of 48 h Candida biofilms (C. albicans biofilms): 64 µg/mL
Minimum inhibitory concentration of 48 h Candida biofilms (C. glabrata biofilms): 64 µg/mL
Minimum inhibitory concentration of 48 h Candida biofilms (C. krusei biofilms): 64 µg/mL
